Experiment [1] addresses purified recombinant human GAC (GLS1) (Homo sapiens (Human), UniProt O94925). Put plainly: GLS1 Enzymatic Activity Assay (dual-coupled enzymatic assay, resorufin/Amplex UltraRed readout).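 Further: glutamate from GAC coupled via glutamate oxidase and peroxidase to resorufin, read as fluorescence (ex 530, em 590 nm) kinetically or at 20 min, four-parameter logistic IC50 fit.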 The class given is biochemical.
A further experiment deals with A549 cells. Kind of experiment: Proliferation Assay (A549 viability, Cell Titer Fluor, 72 hours). The class given is cell-based. To be noted: Homo sapiens. In a few lines: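 Cell Titer Fluor fluorescence after 72 h compound treatment (0.5% DMSO, 37 °C, 5% CO2) of A549 cells plated 24 h earlier at 1000/well. Four-parameter logistic fitting gave IC50.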

SMILES strings stand for the structures. pEC50, pIC50: −log10 of the molar value. Bounds are passed on as bounds.

IC50 and EC50 data for 23 molecules are collected here from patent publication US10344025B2, “GLS1 inhibitors for treating disease” (Board of Regents, The University of Texas System, priority 2014, dated 2019).

In general, pIC50 refers to the IC50 on a negative log10 scale, so that one unit is a factor of ten. Broadly, the pEC50 is the EC50 on a negative log10 scale, so that one unit is a factor of ten. A lower pEC50 goes with a high EC50.

Sequence of purified recombinant human GAC (GLS1) (O94925 other isoform, or with tags, fused parts or gaps): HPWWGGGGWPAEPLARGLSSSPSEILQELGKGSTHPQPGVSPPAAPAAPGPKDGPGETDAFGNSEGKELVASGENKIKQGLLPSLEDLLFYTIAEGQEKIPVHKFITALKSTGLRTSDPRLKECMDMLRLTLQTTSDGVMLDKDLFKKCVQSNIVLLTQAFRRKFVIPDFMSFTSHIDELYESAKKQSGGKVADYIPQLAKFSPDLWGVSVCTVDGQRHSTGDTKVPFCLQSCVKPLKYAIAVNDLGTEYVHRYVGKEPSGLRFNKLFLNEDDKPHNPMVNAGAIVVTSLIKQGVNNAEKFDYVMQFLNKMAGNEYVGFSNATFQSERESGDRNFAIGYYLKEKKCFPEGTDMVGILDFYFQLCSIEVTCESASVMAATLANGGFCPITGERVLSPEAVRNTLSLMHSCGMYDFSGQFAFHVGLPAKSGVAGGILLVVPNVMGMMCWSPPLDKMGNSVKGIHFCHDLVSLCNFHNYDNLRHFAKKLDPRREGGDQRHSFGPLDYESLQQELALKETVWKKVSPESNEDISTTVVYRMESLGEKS

In the case of `Cc1ccc(CNC(=O)c2cn(CCC(F)Cn3cc(NC(=O)Cc4ccccn4)nn3)nn2)cn1` (stereo not shown) [Example 364, 1-(3-fluoro-4-{4-[2-(pyridin-2-yl)acetamido]-1H-1,2,3-triazol-1-yl}butyl)-N-[(6-methylpyridin-3-yl)methyl]-1H-1,2,3-triazole-4-carboxamide], the pIC50 in experiment [1] is 6.30 to 7.00. The molecule further gave a pEC50 with A549 cells (A549, 72 h) of 5.30 to 6.30.

Turning to `O=C(Cc1ccc(Cl)cc1F)Nc1cn(CCCCn2cc(C(=O)NCc3ccccn3)nn2)nn1` [Example 366, 1-(4-{4-[2-(4-chloro-2-fluorophenyl)acetamido]-1H-1,2,3-triazol-1-yl}butyl)-N-(pyridin-2-ylmethyl)-1H-1,2,3-triazole-4-carboxamide], the pIC50 in experiment [1] was 6.30 to 7.00. Moreover, the pEC50 in the experiment on A549 cells (A549, 72 h) was 5.30 to 6.30.

Regarding `O=C(Cc1ccc(OC(F)(F)F)cc1F)Nc1cn(CCCCn2cc(C(=O)NCc3ccccn3)nn2)nn1` [Example 367, 1-[4-(4-{2-[2-fluoro-4-(trifluoromethoxy)phenyl]acetamido}-1H-1,2,3-triazol-1-yl)butyl]-N-(pyridin-2-ylmethyl)-1H-1,2,3-triazole-4-carboxamide], the pIC50 in experiment [1] is greater than 7.00. Besides, the negative logarithm of the EC50 (pEC50) with A549 cells (A549, 72 h) was 6.30 to 7.00.

With `Cc1ccc(CNC(=O)c2cn(CC(F)CCn3cc(C(=O)NCc4cc(OC(F)(F)F)ccc4F)nn3)nn2)cn1` (stereo not shown) [Example 368, 1-{2-fluoro-4-[4-({[2-fluoro-5-(trifluoromethoxy)phenyl]methyl}carbamoyl)-1H-1,2,3-triazol-1-yl]butyl}-N-[(6-methylpyridin-3-yl)methyl]-1H-1,2,3-triazole-4-carboxamide], the pIC50 in experiment [1] was greater than 7.00. In addition, in the experiment with A549 cells (A549, 72 h), the pEC50 was greater than 7.00.

As to `Cc1ccc(CNC(=O)c2cn(CCC(F)Cn3cc(C(=O)NCc4cc(OC(F)(F)F)ccc4F)nn3)nn2)cn1` (stereo not shown) [Example 370, 1-{3-fluoro-4-[4-({[2-fluoro-5-(trifluoromethoxy)phenyl]methyl}carbamoyl)-1H-1,2,3-triazol-1-yl]butyl}-N-[(6-methylpyridin-3-yl)methyl]-1H-1,2,3-triazole-4-carboxamide], the pIC50 in experiment [1] was greater than 7.00. In the experiment on A549 cells (A549, 72 h), this molecule showed a negative-log EC50 (pEC50) greater than 7.00.

For the molecule `O=C(CN1CC(F)C1)Nc1cn(CC(F)CCn2cc(C(=O)NCc3cccc(OC(F)(F)F)c3)nn2)nn1` (stereo not shown) [Example 371, 1-(3-fluoro-4-{4-[2-(3-fluoroazetidin-1-yl)acetamido]-1H-1,2,3-triazol-1-yl}butyl)-N-{[3-(trifluoromethoxy)phenyl]methyl}-1H-1,2,3-triazole-4-carboxamide], the pIC50 in experiment [1] was greater than 7.00. Besides, the pEC50 in the experiment with A549 cells (A549, 72 h) is 6.30 to 7.00.

`O=C(CN1CC(F)C1)Nc1cn(CC(F)CCn2cc(C(=O)NCc3cc(OC(F)(F)F)ccc3F)nn2)nn1` (stereo not shown) [Example 372, 1-(3-fluoro-4-(4-(2-(3-fluoroazetidin-1-yl)acetamido)-1H-1,2,3-triazol-1-yl)butyl)-N-(2-fluoro-5-(trifluoromethoxy)benzyl)-1H-1,2,3-triazole-4-carboxamide]: the pIC50 in experiment [1] is greater than 7.00. Also, the negative-log EC50 (pEC50) in the experiment on A549 cells is 6.30 to 7.00.

As for `O=C(NCc1ccccn1)c1cn(CCC(F)Cn2cc(C(=O)NCc3cc(OC(F)(F)F)ccc3F)nn2)nn1` (stereo not shown) [Example 373, 1-{3-fluoro-4-[4-({[2-fluoro-5-(trifluoromethoxy)phenyl]methyl}carbamoyl)-1H-1,2,3-triazol-1-yl]butyl}-N-(pyridin-2-ylmethyl)-1H-1,2,3-triazole-4-carboxamide], the pIC50 in experiment [1] was greater than 7.00. Further, the pEC50 in the experiment on A549 cells (A549, 72 h) is greater than 7.00.

Take `O=C(Cc1cc(OC(F)(F)F)ccc1F)Nc1cn(CC(F)CCn2cc(C(=O)NCc3ccccn3)nn2)nn1` (stereo not shown) [Example 375, 1-[3-fluoro-4-(4-{2-[2-fluoro-5-(trifluoromethoxy)phenyl]acetamido}-1H-1,2,3-triazol-1-yl)butyl]-N-(pyridin-2-ylmethyl)-1H-1,2,3-triazole-4-carboxamide]: the pIC50 in experiment [1] was greater than 7.00. In the experiment on A549 cells (A549, 72 h), this molecule showed a negative logarithm of the EC50 (pEC50) greater than 7.00.

As for `Cc1ccc(CNC(=O)c2cn(CCC(F)Cn3cc(NC(=O)Cc4cc(OC(F)(F)F)ccc4F)nn3)nn2)cn1` (stereo not shown) [Example 376, 1-[3-fluoro-4-(4-{2-[2-fluoro-5-(trifluoromethoxy)phenyl]acetamido}-1H-1,2,3-triazol-1-yl)butyl]-N-[(6-methylpyridin-3-yl)methyl]-1H-1,2,3-triazole-4-carboxamide], in experiment [1], the pIC50 is greater than 7.00. This molecule gave a pEC50 in the experiment with A549 cells (A549, 72 h) greater than 7.00.

For the molecule `O=C(Cc1cc(OC(F)(F)F)ccc1F)Nc1cn(CC(F)CCn2cc(C(=O)NCc3cc(OC(F)(F)F)ccc3F)nn2)nn1` (stereo not shown) [Example 377, 1[3-fluoro-4-(4-{2-[2-fluoro-5-(trifluoromethoxy)phenyl]acetamido}-1H-1,2,3-triazol-1-yl)butyl]-N-{[2-fluoro-5-(trifluoromethoxy)phenyl]methyl}-1H-1,2,3-triazole-4-carboxamide], the pIC50 in experiment [1] was greater than 7.00. The same molecule gave a pEC50 with A549 cells (A549, 72 h) greater than 7.00.

As for `O=C(Cc1cc(OC(F)(F)F)ccc1F)Nc1cn(CC(F)CCn2cc(C(=O)NCc3ncccc3F)nn2)nn1` (stereo not shown) [Example 378, 1-[3-fluoro-4-(4-{2-[2-fluoro-5-(trifluoromethoxy)phenyl]acetamido}-1H-1,2,3-triazol-1-yl)butyl]-N-[(3-fluoropyridin-2-yl)methyl]-1H-1,2,3-triazole-4-carboxamide], the pIC50 in experiment [1] is greater than 7.00. Besides, in the experiment on A549 cells (A549, 72 h), the pEC50 is greater than 7.00.

With `O=C(Cc1cc(OC(F)(F)F)ccc1F)Nc1cn(CC(F)CCn2cc(C(=O)NCc3cccc(OC(F)(F)F)c3)nn2)nn1` (stereo not shown) [Example 379, 1-[3-fluoro-4-(4-{2-[2-fluoro-5-(trifluoromethoxy)phenyl]acetamido}-1H-1,2,3-triazol-1-yl)butyl]-N-{[3-(trifluoromethoxy)phenyl]methyl}-1H-1,2,3-triazole-4-carboxamide], the pIC50 in experiment [1] is greater than 7.00. Further, the pEC50 with A549 cells (A549, 72 h) is greater than 7.00.

Regarding `O=C(Cc1cc(OC(F)(F)F)ccc1F)Nc1cn(CCCCn2cc(C(=O)NCc3cccc(OC(F)(F)F)c3)nn2)nn1` [Example 380, 1-[4-(4-{2-[2-fluoro-5-(trifluoromethoxy)phenyl]acetamido}-1H-1,2,3-triazol-1-yl)butyl]-N-{[3-(trifluoromethoxy)phenyl]methyl}-1H-1,2,3-triazole-4-carboxamide], the pIC50 in experiment [1] is greater than 7.00. The molecule further gave a pEC50 in the experiment with A549 cells (A549, 72 h) greater than 7.00.

For the molecule `O=C(Cc1cc(OC(F)(F)F)ccc1F)Nc1cn(CCCCn2cc(C(=O)NCc3cc(OC(F)(F)F)ccc3F)nn2)nn1` [Example 381, 1-[4-(4-{2-[2-fluoro-5-(trifluoromethoxy)phenyl]acetamido}-1H-1,2,3-triazol-1-yl)butyl]-N-{[2-fluoro-5-(trifluoromethoxy)phenyl]methyl}-1H-1,2,3-triazole-4-carboxamide], the negative logarithm of the IC50 (pIC50) in experiment [1] was greater than 7.00. Moreover, the pEC50 in the experiment on A549 cells (A549, 72 h) was greater than 7.00.

In the case of `O=C(Cc1cc(OC(F)(F)F)ccc1F)Nc1cn(CCCCn2cc(C(=O)NCc3ncccc3F)nn2)nn1` [Example 382, 1-[4-(4-{2-[2-fluoro-5-(trifluoromethoxy)phenyl]acetamido} 1H-1,2,3-triazol-1-yl)butyl]-N-[(3-fluoropyridin-2-yl)methyl]-1H-1,2,3-triazole-4-carboxamide], in experiment [1], the pIC50 is greater than 7.00. The molecule further showed a pEC50 with A549 cells (A549, 72 h) of 6.30 to 7.00.

`Cc1ccc(CNC(=O)c2cn(CCCCn3cc(NC(=O)Cc4cc(OC(F)(F)F)ccc4F)nn3)nn2)cn1` [Example 383, 1-[4-(4-{2-[2-fluoro-5-(trifluoromethoxy)phenyl]acetamido}-1H-1,2,3-triazol-1-yl)butyl]-N-[(6-methylpyridin-3-yl)methyl]-1H-1,2,3-triazole-4-carboxamide]: the pIC50 in experiment [1] is greater than 7.00. The molecule also showed a pEC50 in the experiment on A549 cells (A549, 72 h) greater than 7.00.

Take `O=C(Cc1cc(OC(F)(F)F)ccc1F)Nc1cn(CCCCn2cc(C(=O)NCc3cc(Cl)ccc3F)nn2)nn1` [Example 384, N-[(5-chloro-2-fluorophenyl)methyl]-1-[4-(4-{2-[2-fluoro-5-(trifluoromethoxy)phenyl]acetamido}-1H-1,2,3-triazol-1-yl)butyl]-1H-1,2,3-triazole-4-carboxamide]: the pIC50 in experiment [1] was greater than 7.00. The molecule also showed a negative-log EC50 (pEC50) in the experiment on A549 cells (A549, 72 h) greater than 7.00.

With `O=C(Cc1cc(Cl)ccc1F)Nc1cn(CCCCn2cc(C(=O)NCc3cccc(OC(F)(F)F)c3)nn2)nn1` [Example 385, 1-(4-{4-[2-(5-chloro-2-fluorophenyl)acetamido]-1H-1,2,3-triazol-1-yl}butyl)-N-{[3-(trifluoromethoxy)phenyl]methyl}-1H-1,2,3-triazole-4-carboxamide], the pIC50 in experiment [1] is greater than 7.00. Moreover, the pEC50 in the experiment with A549 cells (A549, 72 h) is greater than 7.00.

As for `O=C(Cc1cc(Cl)ccc1F)Nc1cn(CCCCn2cc(C(=O)NCc3cc(OC(F)(F)F)ccc3F)nn2)nn1` [Example 386, 1-(4-{4-[2-(5-chloro-2-fluorophenyl)acetamido]-1H-1,2,3-triazol-1-yl}butyl)-N-{[2-fluoro-5-(trifluoromethoxy)phenyl]methyl}-1H-1,2,3-triazole-4-carboxamide], the pIC50 in experiment [1] is greater than 7.00. Also, the pEC50 in the experiment on A549 cells (A549, 72 h) is greater than 7.00.

Consider `O=C(Cc1cc(Cl)ccc1F)Nc1cn(CCCCn2cc(C(=O)NCc3ncccc3F)nn2)nn1` [Example 387, 1-(4-{4-[2-(5-chloro-2-fluorophenyl)acetamido]-1H-1,2,3-triazol-1-yl}butyl)-N-[(3-fluoropyridin-2-yl)methyl]-1H-1,2,3-triazole-4-carboxamide], for which the pIC50 in experiment [1] was 6.30 to 7.00. In the experiment with A549 cells (A549, 72 h), this molecule showed a pEC50 of 5.30 to 6.30.

As to `Cc1ccc(CNC(=O)c2cn(CCCCn3cc(NC(=O)Cc4cc(Cl)ccc4F)nn3)nn2)cn1` [Example 388, 1-(4-{4-[2-(5-chloro-2-fluorophenyl)acetamido]-1H-1,2,3-triazol-1-yl}butyl)-N-[(6-methylpyridin-3-yl)methyl]-1H-1,2,3-triazole-4-carboxamide], the pIC50 in experiment [1] was greater than 7.00. The molecule also gave a pEC50 in the experiment with A549 cells (A549, 72 h) of 6.30 to 7.00.

As to `O=C(CN1CC(F)C1)Nc1cn(CC(F)CCn2cc(C(=O)NCc3ccccn3)nn2)nn1` (stereo not shown) [Example 389, 1-(3-fluoro-4-{4-[2-(3-fluoroazetidin-1-yl)acetamido]-1H-1,2,3-triazol-1-yl}butyl)-N-(pyridin-2-ylmethyl)-1H-1,2,3-triazole-4-carboxamide], the pIC50 in experiment [1] is 5.30 to 6.30. Moreover, the pEC50 with A549 cells (A549, 72 h) was less than 5.30.
